These results are taken from US11739098B2 (BRISTOL-MYERS SQUIBB COMPANY, priority 2017, dated 2023).

Holding throughout (type): cell-based
The target in assay [1] is T1, human TLR8 (Homo sapiens, UniProt Q9NR97).
T1 construct: host or cells: HEK-Blue cells (HEK293-derived reporter line)
T1 sequence (Q9NR97 27-1041): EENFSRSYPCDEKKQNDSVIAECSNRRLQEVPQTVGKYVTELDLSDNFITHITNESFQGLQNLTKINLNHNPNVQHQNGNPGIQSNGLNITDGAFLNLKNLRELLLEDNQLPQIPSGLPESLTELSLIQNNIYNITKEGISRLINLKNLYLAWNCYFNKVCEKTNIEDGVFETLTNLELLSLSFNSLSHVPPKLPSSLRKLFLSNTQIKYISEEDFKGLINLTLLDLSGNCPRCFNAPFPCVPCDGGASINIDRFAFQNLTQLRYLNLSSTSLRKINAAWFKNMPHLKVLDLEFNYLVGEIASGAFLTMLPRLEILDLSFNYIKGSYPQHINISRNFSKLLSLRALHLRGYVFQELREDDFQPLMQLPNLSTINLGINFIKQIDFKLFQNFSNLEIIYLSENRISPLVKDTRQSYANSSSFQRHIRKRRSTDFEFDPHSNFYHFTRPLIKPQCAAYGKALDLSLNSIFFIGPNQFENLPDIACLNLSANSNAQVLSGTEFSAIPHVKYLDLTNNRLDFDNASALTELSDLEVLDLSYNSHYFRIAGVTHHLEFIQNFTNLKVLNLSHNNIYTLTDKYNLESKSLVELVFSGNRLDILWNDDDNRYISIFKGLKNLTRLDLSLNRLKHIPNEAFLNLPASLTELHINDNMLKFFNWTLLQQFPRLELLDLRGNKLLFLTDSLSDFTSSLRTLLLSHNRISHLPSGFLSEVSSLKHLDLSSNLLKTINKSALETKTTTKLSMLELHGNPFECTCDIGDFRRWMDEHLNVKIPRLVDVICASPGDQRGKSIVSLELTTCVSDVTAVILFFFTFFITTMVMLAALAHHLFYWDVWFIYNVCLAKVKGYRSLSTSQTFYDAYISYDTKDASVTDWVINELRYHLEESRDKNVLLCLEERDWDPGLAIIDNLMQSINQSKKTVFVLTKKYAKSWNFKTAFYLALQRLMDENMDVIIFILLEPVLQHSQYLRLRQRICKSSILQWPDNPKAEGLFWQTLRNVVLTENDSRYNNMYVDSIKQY
Nature of the assay: TLR8 inhibition reporter assay (HEK-Blue cells, SEAP reporter, R848 stimulation). The note with it: HEK-Blue cells overexpressing human TLR8, SEAP reporter, R848 15.9 μM. Summed up:
(§1)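 Read-out is SEAP activity in HEK-Blue detection medium after 22 h at 37 °C, converted to percent inhibition against agonist-plus-DMSO and reference-inhibitor controls. Cells saw compound (0.05 nM–50 μM, 30 min, room temperature) before gardiquimod 7.5 μM, R848 15.9 μM or ODN2006 5 nM for TLR7, TLR8 and TLR9, respectively.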

Assay [2] has as its target T2, human TLR9 (Homo sapiens, UniProt Q9NR96).
T2 construct: host or cells: HEK-Blue cells (HEK293-derived reporter line)
T2 sequence (Q9NR96 26-1032): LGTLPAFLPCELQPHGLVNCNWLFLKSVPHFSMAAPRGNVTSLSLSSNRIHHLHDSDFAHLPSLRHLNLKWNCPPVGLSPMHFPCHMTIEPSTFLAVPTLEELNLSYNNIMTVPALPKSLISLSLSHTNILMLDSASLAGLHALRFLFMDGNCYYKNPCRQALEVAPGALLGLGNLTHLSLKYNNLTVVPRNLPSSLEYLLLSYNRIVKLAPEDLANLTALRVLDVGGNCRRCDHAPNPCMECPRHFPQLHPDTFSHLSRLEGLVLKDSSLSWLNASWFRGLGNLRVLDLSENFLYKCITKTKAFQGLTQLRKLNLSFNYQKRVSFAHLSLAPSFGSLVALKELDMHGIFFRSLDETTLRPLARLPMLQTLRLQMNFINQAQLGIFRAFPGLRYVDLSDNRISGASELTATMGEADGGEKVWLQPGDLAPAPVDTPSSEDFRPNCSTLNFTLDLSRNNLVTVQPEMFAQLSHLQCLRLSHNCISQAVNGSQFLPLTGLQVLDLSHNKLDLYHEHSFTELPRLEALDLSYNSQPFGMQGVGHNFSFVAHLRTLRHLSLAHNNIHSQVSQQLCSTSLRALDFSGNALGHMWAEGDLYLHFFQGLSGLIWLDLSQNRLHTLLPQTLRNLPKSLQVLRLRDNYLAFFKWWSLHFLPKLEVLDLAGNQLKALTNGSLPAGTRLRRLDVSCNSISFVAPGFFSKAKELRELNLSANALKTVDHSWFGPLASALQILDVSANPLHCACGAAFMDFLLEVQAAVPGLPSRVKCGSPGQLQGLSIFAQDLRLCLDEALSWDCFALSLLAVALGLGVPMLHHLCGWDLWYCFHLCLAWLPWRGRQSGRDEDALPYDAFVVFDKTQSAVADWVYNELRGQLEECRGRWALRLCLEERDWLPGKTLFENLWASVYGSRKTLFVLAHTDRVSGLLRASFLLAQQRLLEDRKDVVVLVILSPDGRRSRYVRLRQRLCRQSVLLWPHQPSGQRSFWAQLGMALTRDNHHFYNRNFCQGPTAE
In words: TLR9 inhibition reporter assay (HEK-Blue cells, SEAP reporter, ODN2006 stimulation). The note with it: HEK-Blue cells overexpressing human TLR9, SEAP reporter, ODN2006 5 nM. Summed up:
as §1

Assay [3] deals with T3, human TLR7 (Homo sapiens, UniProt Q9NYK1).
T3 construct: host or cells: HEK-Blue cells (HEK293-derived reporter line)
T3 sequence (Q9NYK1 27-1049): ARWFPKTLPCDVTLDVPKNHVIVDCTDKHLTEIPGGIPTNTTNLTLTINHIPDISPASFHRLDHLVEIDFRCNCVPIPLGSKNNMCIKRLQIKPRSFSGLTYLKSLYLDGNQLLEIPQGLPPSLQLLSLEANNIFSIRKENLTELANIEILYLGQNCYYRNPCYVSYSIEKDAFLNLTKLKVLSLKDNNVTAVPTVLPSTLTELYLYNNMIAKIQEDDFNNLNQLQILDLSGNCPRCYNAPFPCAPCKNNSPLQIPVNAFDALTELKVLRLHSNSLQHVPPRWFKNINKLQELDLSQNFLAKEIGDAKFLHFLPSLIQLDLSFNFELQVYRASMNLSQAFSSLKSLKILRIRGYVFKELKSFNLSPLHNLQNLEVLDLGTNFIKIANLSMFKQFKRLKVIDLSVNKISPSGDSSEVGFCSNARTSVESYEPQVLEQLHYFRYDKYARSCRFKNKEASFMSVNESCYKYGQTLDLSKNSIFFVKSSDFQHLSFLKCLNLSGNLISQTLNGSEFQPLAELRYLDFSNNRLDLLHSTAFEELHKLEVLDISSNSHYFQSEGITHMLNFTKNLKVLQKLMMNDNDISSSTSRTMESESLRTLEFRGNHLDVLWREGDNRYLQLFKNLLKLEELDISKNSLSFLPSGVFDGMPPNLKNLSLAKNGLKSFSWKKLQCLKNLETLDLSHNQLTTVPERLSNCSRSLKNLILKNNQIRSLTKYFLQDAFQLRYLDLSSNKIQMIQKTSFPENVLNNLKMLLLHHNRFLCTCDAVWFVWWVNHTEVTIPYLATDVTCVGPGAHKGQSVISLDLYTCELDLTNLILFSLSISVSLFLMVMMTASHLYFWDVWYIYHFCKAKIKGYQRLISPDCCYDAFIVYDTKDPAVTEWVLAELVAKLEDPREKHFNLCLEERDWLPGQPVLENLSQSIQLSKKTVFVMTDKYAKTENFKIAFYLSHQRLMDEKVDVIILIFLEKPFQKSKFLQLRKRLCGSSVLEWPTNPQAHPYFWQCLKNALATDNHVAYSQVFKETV
Nature of the assay: TLR7 inhibition reporter assay (HEK-Blue cells, SEAP reporter, gardiquimod stimulation). The note with it: HEK-Blue cells overexpressing human TLR7, SEAP reporter, gardiquimod 7.5 μM. Summed up:
as §1
A general note: Reporter assays use an easily measured gene product as a stand-in for the process of interest.

Structures are written as SMILES.

A word on the IC50: it is the concentration that inhibits the measured activity by half. Low readings indicate higher potency, high ones lower potency. Regarding `CCOc1cc(-c2[nH]c3ccc(C4CCN(CC(=O)NC)CC4)cc3c2C(C)C)cc2nc(C)nn12` [Example 349, 2-(4-(2-(5-ethoxy-2-methyl-[1,2,4]triazolo[1,5-a]pyridin-7-yl)-3-isopropyl-1H-indol-5-yl)piperidin-1-yl)-N-methylacetamide], the IC50 in assay [1] is below 0.1 µM; in assay [2], 1 to 50 µM; in assay [3], below 0.1 µM.
As to `CCOc1cc(-c2[nH]c3ccc(C4CCN(CC(=O)N(C)C)CC4)cc3c2C(C)C)cc2ncnn12` [Example 350, 2-(4-(2-(5-ethoxy-[1,2,4]triazolo[1,5-a]pyridin-7-yl)-3-isopropyl-1H-indol-5-yl)piperidin-1-yl)-N,N-dimethylacetamide], the results for the IC50 in assay [1], in assay [2] and in assay [3] were below 0.1 µM, 1 to 50 µM and below 0.1 µM, respectively.
Turning to `CCOc1cc(-c2[nH]c3ccc(C4CCN(CC(=O)NC)CC4)cc3c2C(C)C)cc2ncnn12` [Example 351, 2-(4-(2-(5-ethoxy-[1,2,4]triazolo[1,5-a]pyridin-7-yl)-3-isopropyl-1H-indol-5-yl)piperidin-1-yl)-N-methylacetamide], the IC50 in assay [1] is below 0.1 µM; in assay [2], 1 to 50 µM; in assay [3] it was below 0.1 µM.
Consider `CNC(=O)CN1CCC(c2ccc3[nH]c(-c4cc(C)n5cc(C)nc5c4)c(C(C)C)c3c2)CC1` [Example 352, 2-(4-(2-(2,5-dimethylimidazo[1,2-a]pyridin-7-yl)-3-isopropyl-1H-indol-5-yl)piperidin-1-yl)-N-methylacetamide], for which the 50% inhibitory concentration (IC50) in assay [1], in assay [2] and in assay [3] was 0.1 to 1 µM each time.
For `Cc1cn2c(C)cc(-c3[nH]c4ccc(C5CCN(CC(=O)N(C)C)CC5)cc4c3C(C)C)cc2n1` [Example 353, 2-(4-(2-(2,5-dimethylimidazo[1,2-a]pyridin-7-yl)-3-isopropyl-1H-indol-5-yl)piperidin-1-yl)-N,N-dimethylacetamide], the results for the IC50 in assay [1], in assay [2] and in assay [3] were 1 to 50 µM, 0.1 to 1 µM and 0.1 to 1 µM, respectively.
Take `Cc1cc(-c2[nH]c3ccc(C4CCN(CC(=O)N(C)C)CC4)cc3c2C(C)C)cc2nccn12` [Example 354, 2-(4-(3-isopropyl-2-(5-methylimidazo[1,2-a]pyridin-7-yl)-1H-indol-5-yl)piperidin-1-yl)-N,N-dimethylacetamide]: the IC50 in assay [1], in assay [2] and in assay [3] was 0.1 to 1 µM throughout.
For the compound `CNC(=O)CN1CCC(c2ccc3[nH]c(-c4cc(C)n5ccnc5c4)c(C(C)C)c3c2)CC1` [Example 355, 2-(4-(3-isopropyl-2-(5-methylimidazo[1,2-a]pyridin-7-yl)-1H-indol-5-yl)piperidin-1-yl)-N-methylacetamide], the IC50 in assay [1], in assay [2] and in assay [3] was 0.1 to 1 µM in each case.
`CNC(=O)CN1CCC(c2ccc3[nH]c(-c4cc(OC)n5ccnc5c4)c(C(C)C)c3c2)CC1` [Example 356, 2-(4-(3-isopropyl-2-(5-methoxyimidazo[1,2-a]pyridin-7-yl)-1H-indol-5-yl)piperidin-1-yl)-N-methylacetamide]: the IC50 in assay [1], in assay [2] and in assay [3] was 0.1 to 1 µM throughout.
Consider `COc1cc(-c2[nH]c3ccc(C4CCN(CC(=O)N(C)C)CC4)cc3c2C(C)C)cc2nccn12` [Example 357, 2-(4-(3-isopropyl-2-(5-methoxyimidazo[1,2-a]pyridin-7-yl)-1H-indol-5-yl)piperidin-1-yl)-N,N-dimethylacetamide], for which the IC50 in assay [1], in assay [2] and in assay [3] was 0.1 to 1 µM throughout.
On to `CC(C)c1c(-c2cnc3ccnn3c2)[nH]c2ccc(C3CCN(CC(=O)N(C)C)CC3)cc12` [Example 359, 2-(4-(3-isopropyl-2-(pyrazolo[1,5-a]pyrimidin-6-yl)-1H-indol-5-yl)piperidin-1-yl)-N,N-dimethylacetamide], for which the IC50 in assay [1] is above 3.13 µM; in assay [2] it was 1 to 50 µM; in assay [3], 1 to 50 µM.
As to `CNC(=O)CN1CCC(c2ccc3[nH]c(-c4cnc5ccnn5c4)c(C(C)C)c3c2)CC1` [Example 360, 2-(4-(3-isopropyl-2-(pyrazolo[1,5-a]pyrimidin-6-yl)-1H-indol-5-yl)piperidin-1-yl)-N-methylacetamide], the IC50 in assay [1] is above 3.13 µM; in assay [2], 1 to 50 µM; in assay [3], 1 to 50 µM.
On to `CNC(=O)CN1CCC(c2ccc3[nH]c(-c4cccn5ncnc45)c(C(C)C)c3c2)CC1` [Example 361, 2-(4-(2-([1,2,4]triazolo[1,5-a]pyridin-8-yl)-3-isopropyl-1H-indol-5-yl)piperidin-1-yl)-N-methylacetamide], for which the IC50 in assay [1] was in the range of 0.1 to 1 µM; in assay [2] it was 1 to 50 µM; in assay [3], 0.1 to 1 µM.
